Assay results published in US7589123B2, “Chemical compounds” (Phytopharm PLC, priority 2006, dated 2009).

Key:
[1] = system: ovalbumin-sensitised mice; experiment: Ovalbumin-sensitised mice, a chronic model of asthma in vivo (Assay 8); settings: mean ± s.e.mean, oral gavage 20 days: 2 3 mg/kg/day, 32 30 mg/kg/day, budesonide 1 mg/kg/day, montelukast 10 mg/kg/day; for Eosinophil infiltration / IL-4 concentration / IL-13 concentration: BAL fluid day 55; for Eosinophil infiltration: sensitised 192.1 ± 33.2; for IL-4 concentration: sensitised 231.2 ± 62.4; for IL-13 concentration: sensitised 241.9 ± 89.3; for Histopathology score: lung remodelling, day 55, sensitised 541.6 ± 36.1; for Increase in penH: methacholine challenge, day 54, sensitised 193.0 ± 61.7
Method: Mice (BALB/c from Harlan-Olac) were sensitised to ovalbumin using two interperitoneal injections of ovalbumin (10 μg) and alum (200 μl) on day 1 and 14 followed by a 20 min, daily exposure to a ovalbumin aerosol (5%) on days 19-23 and then a thrice weekly 20 min, exposure to a ovalbumin aerosol (5%) on days 24-55. […] On day 54, mice were placed in BUXCO four chamber whole body plethysmographs and breathing-associated pressure changes were recorded which were then used to calculate enhanced pause (penH), a measurement of airways resistance, in response to a methacholine challenge.
On day 55 the mice were killed and brochoalveolar lavage (BAL) fluid was collected and cytospins prepared to measure eosinophil infiltration. In addition, concentrations of interleukin-4 (IL-4) and interleukin-13 (IL-13) were measured in the BAL fluid. Furthermore, lung samples were taken, examined by a histopathologist and scored using a grading system to describe the degree of lung remodelling.

[2] = system: IL-1α-induced PGE2 release; experiment: IL-1α-induced PGE2 release in human diploid lung fibroblasts (WI-38) (Assay 5); type: cell-based; settings: Homo sapiens, WI-38 cells, IL-1α 1 nM, overnight
Method in brief: (§1)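 Cell viability was read by Alamar Blue fluorescence (530/590 nm) after 4 h at 37 °C, following an overnight 37 °C incubation of human lung fibroblasts with 1 nM IL-1α and compound (3 or 30 μM) in 10% FBS MEM, pH 7.3. Supernatant PGE2 was measured by radioimmunoassay to derive percent inhibition.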

WI-38 cells = experiment: Viability of WI-38 cells, Alamar Blue (Assay 5); type: cell-based, human
Method in brief: as §1

[3] = system: 5-HT-induced contractions in guinea pig ileum; experiment: Inhibition of 5-HT-induced contractions in guinea pig ileum (Assay 3); settings: Cavia porcellus, 5-HT 2.6 μM, read-out: Inhibition of 5-HT-induced contraction (%)
Method in brief: (§2)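 Ileal strips from male Duncan Hartley guinea pigs were held at 1 g tension in 32° C oxygenated Krebs (pH 7.4) with isotonic transducers. After control contractions to 5-HT (2.6 μM) or histamine (1.7 μM), compound at 3 and 30 μM was added, its own effect noted, and agonist re-applied.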

[4] = system: histamine-induced contractions in guinea pig ileum; experiment: Inhibition of histamine-induced contractions in guinea pig ileum (Assay 3); settings: Cavia porcellus, histamine 1.7 μM, read-out: Inhibition of histamine-induced contraction (%)
Method in brief: as §2

Compound	melting point [°C]	also measured
CCCC1O[C@@H]2C[C@H]3[C@@H]4CCC5=CC(=O)C=C[C@]5(C)[C@H]4[C@@H](O)C[C@]3(C)[C@]2(C(=O)CO)O1 (some centres unmarked) [budesonide, reference compound]	–	Eosinophil infiltration [1]: 38.4 ± 5.4% of control; IL-4 concentration [1]: 144.2 ± 59.7% of control; IL-13 concentration [1]: 199.3 ± 110.1% of control; Histopathology score [1]: 200.0 ± 27.6% of control; Increase in penH [1]: 184.6 ± 27.7% of control
COc1cc(C=CC(=O)CC(=O)c2ccc(Cl)c(Cl)c2)ccc1O [Compound 55, 1-(3,4-Dichlorophenyl)-5-(4-hydroxy-3-methoxyphenyl)pent-4-ene-1,3-dione]	78 to 80	–
COc1cc(/C=C/C(=O)CC(=O)c2ccc(O)c(OC)c2)ccc1O [Compound 47, (E)-1,5-Bis-(4-hydroxy-3-methoxyphenyl)-pent-4-ene-1,3-dione]	170 to 172	inhibition at 3 µM ([2]; 3 μM): 10%; inhibition at 30 µM ([2]; 30 μM): 109%; Decrease in cell viability (%) (WI-38 cells; 3 μM): 1%; Decrease in cell viability (%) (WI-38 cells; 30 μM): 11%; inhibition at 3 µM ([3]; 3 μM): 6%; inhibition at 30 µM ([3]; 30 μM): 33%; inhibition at 3 µM ([4]; 3 μM): 5%; inhibition at 30 µM ([4]; 30 μM): 23%
COc1cc(/C=C/C(=O)CC(=O)c2ccc(C)c(Cl)c2)ccc1O [Compound 98, (E)-1-(3-Chloro-4-methylphenyl)-5-(4-hydroxy-3-methoxyphenyl)pent-4-ene-1,3-dione]	70 to 72	–
COC(=O)c1ccc(C(=O)CC(=O)/C=C/c2ccc(O)c(OC)c2)cc1 [Compound 57, Methyl 4-[(E)-1,3-dioxo-5-(4-hydroxy-3-methoxyphenyl)pent-4-enyl]benzoate]	187 to 189	–
CC(C)(O)c1ccccc1CC[C@@H](SCC1(CC(=O)O)CC1)c1cccc(/C=C/c2ccc3ccc(Cl)cc3n2)c1 [montelukast, reference compound]	–	Eosinophil infiltration [1]: 124.3 ± 24.8% of control; IL-4 concentration [1]: 58.2 ± 37.2% of control; IL-13 concentration [1]: 73.2 ± 55.3% of control; Histopathology score [1]: 450.0 ± 38.25% of control; Increase in penH [1]: 187.6 ± 31.9% of control
CCOc1cc(/C=C/C(=O)CC(=O)c2ccccc2)ccc1O [Compound 106, (E)-5-(3-Ethoxy-4-hydroxyphenyl)-1-phenylpent-4-ene-1,3-dione]	110 to 112	–
COc1cc(C=CC(=O)CC(=O)c2ccc(Cl)cc2)ccc1O [Compound 53, 1-(4-Chlorophenyl)-5-(4-hydroxy-3-methoxyphenyl)pent-4-ene-1,3-dione]	57 to 63	–
COc1cc(/C=C/C(=O)CC(=O)c2ccccc2C)ccc1O [Compound 103, (E)-5-(4-Hydroxy-3-methoxyphenyl)-1-o-tolylpent-4-ene-1,3-dione]	96	–
COc1cc(C=CC(=O)CC(=O)c2cccc(Cl)c2)ccc1O [Compound 54, 1-(3-Chlorophenyl)-5-(4-hydroxy-3-methoxyphenyl)pent-4-ene-1,3-dione]	54 to 55	–
COc1cc(/C=C/C(=O)CC(=O)c2ccc(C(C)(C)C)cc2)ccc1O [Compound 102, (E)-1-(4-tert-Butylphenyl)-5-(4-hydroxy-3-methoxyphenyl)pent-4-ene-1,3-dione]	87 to 88	–
COc1cc(/C=C/C(=O)CC(=O)Cc2ccccc2)ccc1O [Compound 60, (E)-6-(4-Hydroxy-3-methoxyphenyl)-1-phenyl-hex-5-ene-2,4-dione]	106	–
COc1cc(/C=C/C(=O)CC(=O)c2ccccc2Cl)ccc1O [Compound 94, (E)-1-(2-Chlorophenyl)-5(4-hydroxy-3-methoxyphenyl)pent-4-ene-1,3-dione]	89	–
COc1cc(/C=C/C(=O)CC(=O)c2cccc(C)c2)ccc1O [Compound 104, (E)-5-(4-Hydroxy-3-methoxyphenyl)-1-m-tolylpent-4-ene-1,3-dione]	52	–
COc1cc(C=CC(=O)CC(=O)c2ccc(Cl)cc2Cl)ccc1O [Compound 56, 1-(2,4-Dichlorophenyl)-5-(4-hydroxy-3-methoxyphenyl)pent-4-ene-1,3-dione]	86 to 87	–
COc1cc(CCC(=O)CC(=O)c2ccccc2)ccc1OCCN.Cl	80	–
COc1cc(/C=C/C(=O)CC(=O)c2ccc(C#N)cc2)ccc1O [Compound 101, (E)-1-(4-Cyanophenyl)-5-(4-hydroxy-3-methoxyphenyl)pent-4-ene-1,3-dione]	128 to 130	–
COc1cc(/C=C/C(=O)C(C)(C)C(=O)C(C)(C)C)ccc1O [Compound 91, (E)-1-(4-Hydroxy-3-methoxyphenyl)-4,4,6,6-tetramethylhept-1-ene-3,5-dione]	98 to 99	–
COc1cc(/C=C/C(=O)CC(=O)C2CC2)ccc1O [Compound 37, (E)-1-Cyclopropyl-5-(4-hydroxy-3-methoxyphenyl)-pent-4-ene-1,3-dione]	74.5 to 79	–
COc1cc(/C=C/C(=O)CC(=O)c2ccc3ccccc3c2)c(Cl)cc1O [Compound 105, (E)-5-(2-Chloro-4-hydroxy-5-methoxyphenyl)-1-(naphthalene-3-yl)pent-4-ene-1,3-dione]	134	–
COc1cc(/C=C/C(=O)CC(=O)c2ccc(Cl)cc2C)ccc1O [Compound 96, (E)-1-(4-Chloro-2-methylphenyl)-5-(4-hydroxy-3-methoxyphenyl)pent-4-ene-1,3-dione]	78	–
COc1cc(/C=C/C(=O)CC(=O)c2ccc(Cl)c(C)c2)ccc1O [Compound 95, (E)-1-(4-Chloro-3-methylphenyl)-5-(4-hydroxy-3-methoxyphenyl)pent-4-ene-1,3-dione]	68 to 70	–
